The source made the active and inactive calls. The rule behind the calls is not given here.
What was measured:
[1] = test system: Saccharomyces cerevisiae; assay: Inhibition of Saccharomyces cerevisiae alpha-glucosidase assessed as decrease in release of p-nitrophenol at 100 uM using pNPG as substrate preincubated for 15 min followed by substrate addition and measured after 5 mins by spectrophotometric method relative to control; conditions: time 20.0 min
[2] = Inhibition of Saccharomyces cerevisiae alpha-glucosidase assessed as decrease in release of p-nitrophenol using pNPG as substrate preincubated for 15 min followed by substrate addition and measured after 5 mins by spectrophotometric method
[3] = Cytotoxicity against human L02 cells assessed as cell viability at 100 uM by MTT assay relative to control; format: cell-based; conditions: read-out: Activity
[4] = Cytotoxicity against human HepG2 cells assessed as cell viability at 100 uM by MTT assay relative to control; format: cell-based; conditions: read-out: Activity
[5] = species: Rattus norvegicus; assay: Hypoglycemic activity in sucrose-treated Sprague-Dawley rat assessed as reduction in blood glucose level measured after 30 mins by oral sucrose tolerance test; format: functional, organism-based
[6] = species: Homo sapiens; assay: Binding affinity to alpha-glucosidase (unknown origin) assessed as quenching of intrinsic tryptophan fluorescence of the enzyme by FRET assay
[7] = species: Homo sapiens; assay: Non-competitive inhibition of alpha-glucosidase (unknown origin) assessed as decrease in Vmax with constant Km using varying levels of PNP glycoside as substrate preincubated for 30 mins followed by substrate addition and measured for 60 seconds by Lineweaver-Burk plot analysis
[8] = species: Rattus norvegicus; assay: Hypoglycemic activity in sucrose-treated Sprague-Dawley rat assessed as reduction in blood glucose AUC measured after 2 hrs by oral sucrose tolerance test; format: functional, organism-based

SMILES | inhibition [1] | IC50 [2] | other results
Cc1ccc(/C=N/NC(=O)Nc2sc3c(c2C#N)CCCC3)cc1 | 85.1% | 29.8 µM | 
COc1cccc2c1C(=O)c1c(O)c3c(c(O)c1C2=O)C[C@@](O)(C(=O)CO)C[C@@H]3O[C@H]1C[C@H](N)[C@H](O)[C@H](C)O1 [DOXORUBICIN] |  |  | viability at 100 µM [3]: 4%; viability at 100 µM [4]: 4%
N#Cc1c(NC(=O)N/N=C/c2ccc([N+](=O)[O-])cc2)sc2c1CCCC2 | 57.6% | 67.4 µM | 
N#Cc1c(NC(=O)N/N=C/c2ccccc2O)sc2c1CCCC2 | 44.9% |  | 
N#Cc1c(NC(=O)N/N=C/c2ccccc2)sc2c1CCCC2 | 31.4% |  | 
CCN(CC)c1ccc(/C=N/NC(=O)Nc2sc3c(c2C#N)CCCC3)cc1 | 77.3% | 32.1 µM | 
CN(C)c1ccc(/C=N/NC(=O)Nc2sc3c(c2C#N)CCCC3)cc1 | 67.2% | 46.4 µM | 
COc1cc(/C=N/NC(=O)Nc2sc3c(c2C#N)CCCC3)cc(OC)c1 | 36.4% |  | 
N#Cc1c(NC(=O)N/N=C/c2ccc(O)c(O)c2O)sc2c1CCCC2 | 85.9% | 17.7 µM | 
N#Cc1c(NC(=O)N/N=C/c2ccc(OCc3ccccc3)cc2)sc2c1CCCC2 | 66.6% | 26.5 µM | 
COc1ccc(/C=N/NC(=O)Nc2sc3c(c2C#N)CCCC3)cc1O | 27.8% |  | 
N#Cc1c(NC(=O)N/N=C/c2ccc3c(c2)OC=CO3)sc2c1CCCC2 | 35.7% |  | 
Cc1cc(C)c(/C=N/NC(=O)Nc2sc3c(c2C#N)CCCC3)c(C)c1 | 52.3% | 49.6 µM | 
N#Cc1c(NC(=O)N/N=C/c2ccc(N(c3ccccc3)c3ccccc3)cc2)sc2c1CCCC2 | 89.7% | 13.5 µM | 
Cc1cc(/C=N/NC(=O)Nc2sc3c(c2C#N)CCCC3)ccc1O | 72.2% | 54.4 µM | 
N#Cc1c(NC(=O)N/N=C/c2cc(O)cc(O)c2)sc2c1CCCC2 | 89.5% | 11.4 µM | Activity [6]: Dose-Dependent Effect; viability at 100 µM [3]: 96.6%; inhibition [7]: Active; Activity [8]: Active; Activity [5]: Active; viability at 100 µM [4]: 93.8%
CC(C)c1ccc(/C=N/NC(=O)Nc2sc3c(c2C#N)CCCC3)cc1 | 64.2% | 48.6 µM | 
N#Cc1c(NC(=O)N/N=C/c2ccc(Oc3ccccc3)cc2)sc2c1CCCC2 | 72.5% | 21.8 µM | 

The next lines start with results.

inhibition [1] | IC50 [2] | SMILES | other results
63.1% | 33.8 µM | N#Cc1c(NC(=O)N/N=C/c2ccc(O)cc2O)sc2c1CCCC2 | 
18.8% |  | COc1ccc(/C=N/NC(=O)Nc2sc3c(c2C#N)CCCC3)cc1 | 
 | 440 µM | C[C@H]1O[C@H](O[C@H]2[C@H](O)[C@@H](O)[C@@H](O[C@H]3[C@H](O)[C@@H](O)C(O)O[C@@H]3CO)O[C@@H]2CO)[C@H](O)[C@@H](O)[C@@H]1N[C@H]1C=C(CO)[C@@H](O)[C@H](O)[C@H]1O (stereo partly drawn) [ACARBOSE] | Activity [5]: Active
86.3% | 9.26 µM | N#Cc1c(NC(=O)N/N=C/c2ccc(O)c(O)c2)sc2c1CCCC2 | Activity [6]: Dose-Dependent Effect; viability at 100 µM [3]: 96%; inhibition [7]: Active; Activity [8]: Active; Activity [5]: Active; viability at 100 µM [4]: 92.7%
64.2% | 32.5 µM | CCN(CC)c1ccc(/C=N/NC(=O)Nc2sc3c(c2C#N)CCCC3)c(O)c1 | 
81.7% | 20.7 µM | N#Cc1c(NC(=O)N/N=C/c2ccc(O)cc2)sc2c1CCCC2 | 
35.4% |  | Cc1cc(/C=N/NC(=O)Nc2sc3c(c2C#N)CCCC3)cc(C)c1O | 
29.5% |  | Cc1cccc(/C=N/NC(=O)Nc2sc3c(c2C#N)CCCC3)c1O | 
40.5% |  | N#Cc1c(NC(=O)N/N=C/c2cccc(OCc3ccccc3)c2)sc2c1CCCC2 | 
59.5% | 49.2 µM | Cc1cccc(/C=N/NC(=O)Nc2sc3c(c2C#N)CCCC3)c1C | 
48.4% |  | N#Cc1c(NC(=O)N/N=C/c2cccc(O)c2)sc2c1CCCC2 | 
89.5% | 25.4 µM | CCc1ccc(/C=N/NC(=O)Nc2sc3c(c2C#N)CCCC3)cc1 | 
68.2% | 29.5 µM | N#Cc1c(NC(=O)N/N=C/c2cccc(O)c2O)sc2c1CCCC2 | 
7.69% |  | COC(=O)c1ccc(/C=N/NC(=O)Nc2sc3c(c2C#N)CCCC3)cc1 | 
34.9% |  | Cc1ccc(/C=N/NC(=O)Nc2sc3c(c2C#N)CCCC3)c(O)c1 | 
48% |  | N#Cc1c(NC(=O)N/N=C/c2ccccc2OCc2ccccc2)sc2c1CCCC2 | 
0.7% |  | COc1cc(/C=N/NC(=O)Nc2sc3c(c2C#N)CCCC3)cc(OC)c1O | 
74.8% | 38.9 µM | Cc1ccc(/C=N/NC(=O)Nc2sc3c(c2C#N)CCCC3)cc1C | 
 | 63.1 µM | N#Cc1c(NC(=O)NCc2ccccc2)sc2c1CCCC2 | 
70.7% | 68.4 µM | N#Cc1c(NC(=O)N/N=C/c2ccc(N3CCCC3)cc2)sc2c1CCCC2 | 
